According to the NIST ThermoML archive (doi:10.1016/j.jct.2017.08.032):
Numbers after ± are expanded uncertainties.

[1] = 283.15 K; 101.33 kPa; Liquid; Falling or rolling sphere viscometry
[2] = 283.15 K; 101.33 kPa; Liquid; Vibrating tube method
[3] = 293.15 K; 101.33 kPa; Liquid; Falling or rolling sphere viscometry
[4] = 293.15 K; 101.33 kPa; Liquid; Vibrating tube method
[5] = 303.15 K; 101.33 kPa; Liquid; Falling or rolling sphere viscometry
[6] = 303.15 K; 101.33 kPa; Liquid; Vibrating tube method
[7] = 313.15 K; 101.33 kPa; Liquid; Falling or rolling sphere viscometry
[8] = 313.15 K; 101.33 kPa; Liquid; Vibrating tube method
[9] = 323.15 K; 101.33 kPa; Liquid; Falling or rolling sphere viscometry
[10] = 323.15 K; 101.33 kPa; Liquid; Vibrating tube method
[11] = 333.15 K; 101.33 kPa; Liquid; Falling or rolling sphere viscometry
[12] = 333.15 K; 101.33 kPa; Liquid; Vibrating tube method
[13] = 343.15 K; 101.33 kPa; Liquid; Falling or rolling sphere viscometry
[14] = 343.15 K; 101.33 kPa; Liquid; Vibrating tube method
[15] = 353.15 K; 101.33 kPa; Liquid; Falling or rolling sphere viscometry
[16] = 353.15 K; 101.33 kPa; Liquid; Vibrating tube method
[17] = 363.15 K; 101.33 kPa; Liquid; Falling or rolling sphere viscometry
[18] = 363.15 K; 101.33 kPa; Liquid; Vibrating tube method
[19] = 313.15 K; 101.33 kPa; Falling or rolling sphere viscometry; Liquid
[20] = 313.15 K; 101.33 kPa; Vibrating tube method; Liquid
[21] = 323.15 K; 101.33 kPa; Falling or rolling sphere viscometry; Liquid
[22] = 323.15 K; 101.33 kPa; Vibrating tube method; Liquid
[23] = 333.15 K; 101.33 kPa; Falling or rolling sphere viscometry; Liquid
[24] = 333.15 K; 101.33 kPa; Vibrating tube method; Liquid
[25] = 343.15 K; 101.33 kPa; Falling or rolling sphere viscometry; Liquid
[26] = 343.15 K; 101.33 kPa; Vibrating tube method; Liquid
[27] = 353.15 K; 101.33 kPa; Falling or rolling sphere viscometry; Liquid
[28] = 353.15 K; 101.33 kPa; Vibrating tube method; Liquid
[29] = 363.15 K; 101.33 kPa; Falling or rolling sphere viscometry; Liquid
[30] = 363.15 K; 101.33 kPa; Vibrating tube method; Liquid

Row | SMILES | viscosity [1] [mPa·s] | mass density [2] [kg/m3] | viscosity [3] [mPa·s] | mass density [4] [kg/m3] | viscosity [5] [mPa·s] | mass density [6] [kg/m3] | viscosity [7] [mPa·s] | mass density [8] [kg/m3] | viscosity [9] [mPa·s] | mass density [10] [kg/m3] | viscosity [11] [mPa·s] | mass density [12] [kg/m3] | viscosity [13] [mPa·s] | mass density [14] [kg/m3] | viscosity [15] [mPa·s] | mass density [16] [kg/m3] | viscosity [17] [mPa·s] | mass density [18] [kg/m3] | also measured
1 | CCCC[n+]1ccn(C)c1.O=S(=O)([N-]S(=O)(=O)C(F)(F)F)C(F)(F)F | 88.06 ± 3.9 | 1448 ± 10 | 54.17 ± 2.2 | 1438 ± 10 | 35.88 ± 1.5 | 1428 ± 10 | 25.32 ± 1 | 1418 ± 10 | 18.69 ± 0.77 | 1408 ± 10 | 14.34 ± 0.59 | 1399 ± 10 | 11.22 ± 0.46 | 1390 ± 10 | 8.99 ± 0.37 | 1379 ± 10 | 7.38 ± 0.3 | 1370 ± 10 | –
2 | CCC[N+]1(C)CCCCC1.O=S(=O)([N-]S(=O)(=O)C(F)(F)F)C(F)(F)F | – | – | – | – | – | – | – | – | – | – | – | – | – | – | – | – | – | – | viscosity (283.15 K; 101.33 kPa; Metastable liquid; Falling or rolling sphere viscometry): 350.3 ± 25 mPa·s; mass density (283.15 K; 101.33 kPa; Metastable liquid; Vibrating tube method): 1422 ± 10 kg/m3; viscosity (293.15 K; 101.33 kPa; Falling or rolling sphere viscometry; Liquid): 174.4 ± 9.8 mPa·s; mass density (293.15 K; 101.33 kPa; Vibrating tube method; Liquid): 1413 ± 10 kg/m3; viscosity (303.15 K; 101.33 kPa; Falling or rolling sphere viscometry; Liquid): 99.68 ± 4.6 mPa·s; mass density (303.15 K; 101.33 kPa; Vibrating tube method; Liquid): 1404 ± 10 kg/m3; viscosity [19]: 62.11 ± 2.6 mPa·s; mass density [20]: 1395 ± 10 kg/m3; viscosity [21]: 40.78 ± 1.7 mPa·s; mass density [22]: 1386 ± 10 kg/m3; viscosity [23]: 29.14 ± 1.2 mPa·s; mass density [24]: 1379 ± 10 kg/m3; viscosity [25]: 21.36 ± 0.88 mPa·s; mass density [26]: 1371 ± 10 kg/m3; viscosity [27]: 16.25 ± 0.67 mPa·s; mass density [28]: 1363 ± 10 kg/m3; viscosity [29]: 12.75 ± 0.52 mPa·s; mass density [30]: 1353 ± 10 kg/m3
3 | CCn1cc[n+](C)c1.O=S(=O)([N-]S(=O)(=O)C(F)(F)F)C(F)(F)F | 56.17 ± 2.3 | 1531 ± 10 | 37.23 ± 1.5 | 1521 ± 10 | 26.55 ± 1.1 | 1510 ± 10 | 19.6 ± 0.8 | 1500 ± 10 | 15.01 ± 0.62 | 1491 ± 10 | 11.84 ± 0.49 | 1483 ± 10 | 9.57 ± 0.39 | 1474 ± 10 | 7.9 ± 0.32 | 1465 ± 10 | 6.65 ± 0.27 | 1455 ± 10 | –
4 | CCCCn1cc[n+](C)c1.CCOS(=O)(=O)[O-] [1-butyl-3-methyl-1H-imidazolium ethyl sulfate] | 672.1 ± 60 | 1193 ± 10 | 334 ± 24 | 1186 ± 10 | 181 ± 10 | 1180 ± 10 | 110.3 ± 5.2 | 1173 ± 10 | 70.37 ± 2.9 | 1166 ± 10 | 47.41 ± 1.9 | 1160 ± 10 | 33.67 ± 1.4 | 1153 ± 10 | 24.88 ± 1 | 1146 ± 10 | 19.11 ± 0.78 | 1139 ± 10 | –
5 | CCCCn1cc[n+](C)c1.F[P-](F)(F)(F)(F)F [1-butyl-3-methylimidazolium hexafluorophosphate] | 779.5 ± 73 | 1380 ± 10 | 345.1 ± 25 | 1372 ± 10 | 185.1 ± 11 | 1363 ± 10 | 109.6 ± 5.2 | 1354 ± 10 | 69.7 ± 2.9 | 1346 ± 10 | 46.59 ± 1.9 | 1339 ± 10 | 32.67 ± 1.3 | 1332 ± 10 | 23.85 ± 0.98 | 1323 ± 10 | 18.03 ± 0.74 | 1314 ± 10 | –
6 | CCCCn1cc[n+](C)c1.O=S(=O)([O-])C(F)(F)F [1-butyl-3-methylimidazolium trifluoromethanesulfonate] | 183.3 ± 10 | 1309 ± 10 | 106.5 ± 5 | 1301 ± 10 | 66.58 ± 2.8 | 1293 ± 10 | 44.45 ± 1.8 | 1285 ± 10 | 31.17 ± 1.3 | 1277 ± 10 | 22.81 ± 0.94 | 1270 ± 10 | 17.24 ± 0.71 | 1262 ± 10 | 13.48 ± 0.55 | 1254 ± 10 | 10.73 ± 0.44 | 1247 ± 10 | –
7 | C[N+](C)(C)CCO.O=S(=O)([N-]S(=O)(=O)C(F)(F)F)C(F)(F)F [choline bis(trifluoromethylsulfonyl)imide] | – | – | – | – | – | – | – | – | – | – | – | – | – | – | – | – | – | – | viscosity (293.15 K; 101.33 kPa; Metastable liquid; Falling or rolling sphere viscometry): 187.9 ± 11 mPa·s; mass density (293.15 K; 101.33 kPa; Metastable liquid; Vibrating tube method): 1539 ± 10 kg/m3; viscosity (303.15 K; 101.33 kPa; Metastable liquid; Falling or rolling sphere viscometry): 111.5 ± 5.3 mPa·s; mass density (303.15 K; 101.33 kPa; Metastable liquid; Vibrating tube method): 1530 ± 10 kg/m3; viscosity [19]: 71.05 ± 3 mPa·s; mass density [20]: 1520 ± 10 kg/m3; viscosity [21]: 47.94 ± 2 mPa·s; mass density [22]: 1511 ± 10 kg/m3; viscosity [23]: 34.09 ± 1.4 mPa·s; mass density [24]: 1504 ± 10 kg/m3; viscosity [25]: 25.6 ± 1.1 mPa·s; mass density [26]: 1495 ± 10 kg/m3; viscosity [27]: 19.61 ± 0.8 mPa·s; mass density [28]: 1486 ± 10 kg/m3; viscosity [29]: 15.43 ± 0.63 mPa·s; mass density [30]: 1476 ± 10 kg/m3
